{"source": "patent US9199917B2", "about": "“N-substituted benzenepropanamide or benzenepropenamide derivatives for use in the treatment of pain and inflammation” (Novaremed Limited, priority 2008, dated 2015)", "tested_on": "Balb/c mice", "test": "Hot-Plate Test of Balb/c mice vs. imipramine, i.p. & p.o. (Example 2)", "assay_type": "in vivo", "conditions": "5 mg/kg i.p. at t=0, group Average", "procedure": "14-week old male Balb/c mice (non-naive) were divided into four groups of seven mice per group and treated at t=0 as detailed in Table 3 below:\nCompound 18 stock comprises 9.4 mg Compound 18, 0.2 mL DMSO and 0.8 mL saline.\nAs in Example 1 above, the response latencies of the mice in the respective groups were tested using a hot-plate at t=−60 mins., 0 mins., 60 mins., 120 mins., 180 mins., 240 mins., 300 mins. and 360 mins."}
{"molecule": "CN(C)CCCN1c2ccccc2CCc2ccccc21", "note": "[Imipramine, imipramine]", "values": [{"measurement": "hot-plate response latency", "setting": "tested at t=0 mins.", "result": 13.7, "unit": "s"}, {"measurement": "hot-plate response latency", "setting": "tested at t=60 mins.", "result": 14.9, "unit": "s"}, {"measurement": "hot-plate response latency", "setting": "tested at t=120 mins.", "result": 14.6, "unit": "s"}, {"measurement": "hot-plate response latency", "setting": "tested at t=240 mins.", "result": 22.9, "unit": "s"}, {"measurement": "hot-plate response latency", "setting": "tested at t=300 mins.", "result": 23.1, "unit": "s"}]}
